Measurements as given in patent publication US5916906A, “Compositions comprising nicotinylalanine and an inhibitor of glycine conjugation or vitamin B6” (priority 1997, dated 1999).
Values joined by “and” are separate entries in the source; they are usually repeats but may differ in a detail not shown here. Equal entries are not always repeated.

What was measured:
Format in all cases: in vivo, C57BL/6 mice
[1] = tested on: LP-BM5 MuLV Retrovirus; assay: MAIDS model, interim sacrifices: body weight, disease score, spleen weight; conditions: for Body Wt. / Spleen Wt.: individual mouse; for Disease Score: scores 0 through +4, individual mouse
Procedure: This study was designed to determine whether nicotinylalanine (NAL) alone or in combination with acetylsalicylic acid (ASA) will prevent or alter the course of murine retroviral-induced immunodeficiency disease, MAIDS, in C57BL/6 female mice. The LP-BM5 MuLV virus used for these studies was prepared from chronically infected SC-1 cells (ATCC Cat. No. CRL-1404), as described by Yetter R. A. et al., J. Exp. Med., 168, 623-635, 1988. […] The MAIDS model is well characterized and reproducible in the laboratory, as described by Mosier D. E. et al., J. Exp. Med. 161, 766-784, 1985.
Measures of disease progression followed the methods developed by Eiseman et al., 1991 (Ibid). Disease scores 0 through +4 are based upon body weight gain and palpable alterations in the size of lymph nodes and spleen. Severity of disease is scored as follows: 0.5, increased body weight and variably detected increase in size of any one lymph node or spleen; +1, clearly detectable increase in the size of a lymph node and spleen; +2, readily detectable (greater than 0.3 cm in diameter) increased size in more than one lymph node and, in particular, enlargement of subcervical, brachial or axillary nodes; +3, increased size of all palpable nodes and palpable splenomegaly (≥0.3 grams); +4, advanced disease with extensive splenomegaly (>1.0 grams) and lymphadenopathy.
Specific pathogen free, female C57BL/6 mice (5 weeks of age) were purchased from Charles River Breeding Laboratories. All mice were allowed one week to acclimate to housing facilities prior to randomization for study. Animals were marked for identification and placed in microisolator cages with identifying cards (5 mice/cage), where autoclaved food and water were provided ad libitum.
NAL and ASA were formulated under sterile conditions according to preformulation methods outlined in Remington's Pharmaceutical Sciences Handbook, 18th Edition, 1990, ibid). NAL and ASA were dissolved in sterile phosphate-buffered normal saline solution (i.e., vehicle; Biofluids Inc., Lot 413054), adjusted to between pH 7.2 to 7.4 with […], sterilized by filtration through 0.2 μm bottle-type filters, and dispersed into sterile glass vials, sealed and capped (Wheaton Inc.).
Except for Group 6 (which began treatment 2 weeks after virus inoculation),test drug injections began 1 day after virus infection and continued every day except weekends (i.e., 5 times per week).
(§1) Disease progression was monitored by measuring serum IgM levels by ELISA on all animals at monthly intervals during the course of disease. Three mice per group were randomly selected and sacrificed at monthly intervals (end of month one through four) of the study. Disease scores for each animal were recorded weekly based upon palpation of lymph nodes and spleen. Complete gross necropsies were performed on these euthanized animals and the ratio of recorded spleen to body weights was an additional indicator of diseases progression. […] Infection was quantified by ecotropic virus XC plaque assays of spleens removed from the interim sacrificed animals.

[2] = Plasma nicotinamide levels in LP-BM5 infected mice (HPLC); conditions: NAL 400 mg/kg; for Mean Plasma Nicotinamide Level: virus-positive, mean ± SD
Procedure: Mice were sacrificed on Tuesdays at monthly intervals after
inoculation, approximately 24 hours after their last treatment.
At time of sacrifice, blood was collected by cardiac puncture and stored
Results are expressed as mean concentrations ± standard deviation in

[3] = Hematocrit of LP-BM5 infected mice (hematopoietic toxicity); conditions: mouse, in vivo
Procedure: as §1, with “animals. The study was to be terminated when mice were either dead or disease scores were +4 in more than 50% of the vehicle-treated MAIDS controls (Group 1), which occurred at 19 weeks post-inoculation of the virus pool. However, as the remaining mice in Group 1 were slow to progress towards more severe disease (FIG. 5) or death (FIG. 6), the study was extended until a termination date of 28 weeks post-inoculation.” for “animals.”
Mice were maintained through the fifth month post virus inoculation until

[4] = 1 month postinoculation, NAL 200 mg/kg i.p. (no ASA)
[5] = 1 month postinoculation, NAL 400 mg/kg i.p., delayed Rx 2 weeks
[6] = 1 month postinoculation, treatment from day 1: NAL 400 mg/kg i.p., ASA 20 mg/kg i.p., AZT 1 mg/ml in drink water
[7] = 2 months postinoculation, NAL 200 mg/kg i.p. (no ASA)
[8] = 2 months postinoculation, NAL 400 mg/kg i.p., delayed Rx 2 weeks
[9] = 2 months postinoculation, treatment from day 1: NAL 400 mg/kg i.p., ASA 20 mg/kg i.p., AZT 1 mg/ml in drink water
[10] = 3 months postinoculation, NAL 400 mg/kg i.p., delayed Rx 2 weeks
[11] = 3 months postinoculation, treatment from day 1: NAL 400 mg/kg i.p., ASA 20 mg/kg i.p., AZT 1 mg/ml in drink water
[12] = 4 months postinoculation, NAL 400 mg/kg i.p., delayed Rx 2 weeks
[13] = 4 months postinoculation, treatment from day 1: NAL 400 mg/kg i.p., ASA 20 mg/kg i.p., AZT 1 mg/ml in drink water

NC(CC(=O)c1cccnc1)C(=O)O (racemic) [NAL, γ-(3-pyridyl)-γ-oxo-α-aminobutyrate]
Body Wt. [1, 4]: 21.9 Grams and 21.8 Grams and 23.4 Grams | Spleen Wt. [1, 4]: 0.080 Grams and 0.257 Grams and 0.123 Grams | Body Wt. [1, 5]: 20.4 Grams and 20.5 Grams and 22.3 Grams | Spleen Wt. [1, 5]: 0.103 Grams and 0.151 Grams and 0.136 Grams | Body Wt. [1, 6]: 21.3 Grams and 20.4 Grams and 19.6 Grams | Spleen Wt. [1, 6]: 0.186 Grams and 0.309 Grams and 0.159 Grams | Disease Score [1, 4]: 0 and 1 and 0.5 | Disease Score [1, 5]: 0 and 0.5 | Disease Score [1, 6]: 1 | Body Wt. [1, 7]: 22.5 Grams and 23.8 Grams and 22.2 Grams | Spleen Wt. [1, 7]: 0.229 Grams and 0.098 Grams and 0.302 Grams | Body Wt. [1, 8]: 21.2 Grams and 20.0 Grams and 26.6 Grams | Spleen Wt. [1, 8]: 0.168 Grams and 0.086 Grams and 0.320 Grams | Body Wt. [1, 9]: 21.6 Grams and 24.0 Grams | Spleen Wt. [1, 9]: 0.289 Grams and 0.216 Grams and 0.125 Grams | Disease Score [1, 7]: 1 and 0.5 and 2 | Disease Score [1, 8]: 1 and 0 and 2 | Disease Score [1, 9]: 1 and 2 | Body Wt. [1, 10]: 23.8 Grams and 25.3 Grams and 26.3 Grams | Spleen Wt. [1, 10]: 0.090 Grams and 0.112 Grams and 0.175 Grams | Body Wt. [1, 11]: 23.6 Grams and 22.3 Grams and 24.6 Grams | Spleen Wt. [1, 11]: 0.112 Grams and 0.341 Grams and 0.086 Grams | Disease Score [1, 10]: 0 and 0.5 and 1 | Disease Score [1, 11]: 0.5 and 2 | Body Wt. [1, 12]: 26.8 Grams and 27.5 Grams and 24.5 Grams | Spleen Wt. [1, 12]: 0.399 Grams and 0.157 Grams and 0.083 Grams | Body Wt. [1, 13]: 27.6 Grams and 28.0 Grams and 25.5 Grams | Spleen Wt. [1, 13]: 0.119 Grams and 1.030 Grams and 0.240 Grams | Disease Score [1, 12]: 3 and 1 and 0.5 | Disease Score [1, 13]: 0.5 and 4 and 2 | Ratio of plasma nicotinamide mean to placebo (PBS Control, Group 1) ([2]; Month 1, ASA 20 mg/kg, AZT as in Table 4): 1.06 | Ratio of plasma nicotinamide mean to placebo (PBS Control, Group 1) ([2]; Month 1, delayed 2 weeks): 1.16 | Mean Plasma Nicotinamide Level ([2]; Month 1, ~24 h after last treatment, ASA 20 mg/kg, AZT printed 1 mg/kg): 3.4 ± 0.9 nmol/mL | Mean Plasma Nicotinamide Level ([2]; Month 1, delayed Rx 2 weeks): 3.7 ± 1.1 nmol/mL | Ratio of plasma nicotinamide mean to placebo (PBS Control, Group 1) ([2]; Month 2, ASA 20 mg/kg, AZT as in Table 4): 1.13 | Ratio of plasma nicotinamide mean to placebo (PBS Control, Group 1) ([2]; Month 2, delayed 2 weeks): 1.49 | Mean Plasma Nicotinamide Level ([2]; Month 2, ~24 h after last treatment, ASA 20 mg/kg, AZT printed 1 mg/kg): 4.4 ± 0.5 nmol/mL | Mean Plasma Nicotinamide Level ([2]; Month 2, delayed Rx 2 weeks): 5.8 ± 0.5 nmol/mL | Ratio of plasma nicotinamide mean to placebo (PBS Control, Group 1) ([2]; Month 3, ASA 20 mg/kg, AZT as in Table 4): 1.35 | Ratio of plasma nicotinamide mean to placebo (PBS Control, Group 1) ([2]; Month 3, delayed 2 weeks): 1.65 | Mean Plasma Nicotinamide Level ([2]; Month 3, ~24 h after last treatment, ASA 20 mg/kg, AZT printed 1 mg/kg): 3.1 ± 0.4 nmol/mL | Mean Plasma Nicotinamide Level ([2]; Month 3, delayed Rx 2 weeks): 3.8 ± 0.1 nmol/mL | Ratio of plasma nicotinamide mean to placebo (PBS Control, Group 1) ([2]; Month 4, ASA 20 mg/kg, AZT as in Table 4): 1.88 | Ratio of plasma nicotinamide mean to placebo (PBS Control, Group 1) ([2]; Month 4, delayed 2 weeks): 1.84 | Mean Plasma Nicotinamide Level ([2]; Month 4, ~24 h after last treatment, ASA 20 mg/kg, AZT printed 1 mg/kg): 4.7 ± 0.5 nmol/mL | Mean Plasma Nicotinamide Level ([2]; Month 4, delayed Rx 2 weeks): 4.6 ± 0.3 nmol/mL | Effect on decreased hematocrit (in words) [3]: protective effect
